The record followed here is ChEMBL document CHEMBL1201862, “PubChem BioAssay data set” (2004).

Holding throughout (experiment): DTP human tumour cell line panel, 48 h
Assay [1] relates to KM12.
Assay [2] deals with RXF 393.
The subject of assay [3] is SF-295.
In assay [4] the test system is MDA-MB-231.
Assay [5] relates to MOLT-4.
In assay [6] the test system is EKVX.
The test system of assay [7] is HOP-62.
In assay [8] the test system is NCI-H23.
Assay [9] relates to IGROV-1.
The test system of assay [10] is NCI-H522.
Assay [11] has as its system HT-29.
Assay [12] has as its system COLO 205.
Assay [13] deals with Hs-578T.
Assay [14] relates to SK-MEL-2.
Assay [15] has as its system SK-MEL-5.
In assay [16] the test system is PC-3.
Assay [17] deals with HCC 2998.
Assay [18] concerns HOP-92.
Assay [19] concerns RPMI-8226.
Assay [20] deals with A498.

Each structure is given as a SMILES string.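 Following 48 hours of exposure in 96-well plates, responses at five concentrations were used to interpolate endpoints linearly. The concentration for 50% growth inhibition is given as GI50.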 Active and inactive are the calls of the source. No stated cut-off is given here; in the data, active = GI50 up to about 1.1 µM and inactive = higher.

What is called GI50 is the concentration at which growth is held to half of that of the control. Regarding `Oc1c(N2CCOCC2)cc(-c2cc(N3CCOCC3)c(O)c3ccccc23)c2ccccc12`, the GI50 in assay [1] was 6.05 µM (inactive); in assay [2], 1.56 µM (inactive); in [3], 1.71 µM (inactive); in assay [4], 1.24 µM (inactive); in assay [5], 1.71 µM (inactive); in assay [6], 11.7 µM (inactive). The GI50 was 1.69 µM (inactive) in assay [7]; 2.28 µM (inactive) in assay [8]; 2.4 µM (inactive) in assay [9]; 2.23 µM (inactive) in assay [10]; 2.16 µM (inactive) in [11]; 1.93 µM (inactive) in assay [12]. The GI50 in [13] is 3.44 µM (inactive); in assay [14], 2.65 µM (inactive); in assay [15], 0.422 µM (active); in assay [16], 2.64 µM (inactive); in assay [17], 2.04 µM (inactive).

`O=C(N/C(=C/c1ccc(Cl)cc1)c1nc2ccccc2c(=O)n1Nc1ccc([N+](=O)[O-])cc1[N+](=O)[O-])c1ccccc1`: the GI50 in assay [1], in [3], in assay [4], in [5], in assay [18] and in [7] was > 100 µM (inactive) each time. In addition, the GI50 in assay [8], in [9], in assay [10], in [11], in assay [12] and in assay [13] was > 100 µM (inactive) each time. The GI50 in assay [15], in assay [16] and in [17] was > 100 µM (inactive) throughout.

Take `Cc1ccc(S(=O)(=O)NC(=O)NC(CCC(N)=O)C(=O)O)cc1` (stereo not drawn): the GI50 in assay [1], in assay [2], in [3], in [4], in assay [19] and in assay [5] was > 100 µM (inactive) throughout. Moreover, the GI50 in [18] was 64.3 µM (inactive); in [7], > 100 µM (inactive); in assay [8] it was > 100 µM (inactive); in [9] it was > 100 µM (inactive); in assay [10], > 100 µM (inactive); in assay [11], > 100 µM (inactive). In addition, the GI50 in assay [12], in [13], in assay [14], in assay [15] and in assay [16] was > 100 µM (inactive) in each case.

With `Nc1nc(Cl)cc(NCC2(CCO)CCC2)n1`, the GI50 was > 100 µM (inactive) in [1]; 80.5 µM (inactive) in assay [2]; > 10 µM (inactive) in [3]; > 100 µM (inactive) in assay [4]; > 100 µM (inactive) in assay [19]; > 100 µM (inactive) in assay [5]. Moreover, the GI50 in [18] was > 100 µM (inactive); in assay [6], 59.4 µM (inactive); in assay [7], > 100 µM (inactive); in assay [8], > 100 µM (inactive); in [9] it was > 100 µM (inactive); in [10], > 100 µM (inactive). Besides, the GI50 in [11], in assay [13], in assay [14], in assay [15], in [16] and in assay [17] was > 100 µM (inactive) in each case.

`CCN(CC)c1ccc(C(=C2C=CC(=[N+](CC)CC)C=C2)c2ccc(N(CC)CC)cc2)cc1`: the GI50 was 0.0561 µM (active) in assay [1]; 0.18 µM (active) in [2]; 0.0483 µM (active) in [3]; 0.063 µM (active) in [4]; 0.0342 µM (active) in assay [19]; 0.115 µM (active) in [5]. Moreover, the GI50 in assay [18] is 0.211 µM (active); in assay [6], 0.244 µM (active); in [7] it was 0.238 µM (active); in [8], 0.0773 µM (active); in [9], 0.146 µM (active); in [10], 0.113 µM (active). Moreover, the GI50 in assay [11] is 0.0414 µM (active); in [12] it was 0.0627 µM (active); in assay [13], 0.0889 µM (active); in assay [14] it was 0.117 µM (active); in assay [15], 0.094 µM (active); in assay [16] it was 0.0423 µM (active). The GI50 in assay [17] is 0.186 µM (active).

For `COC(=O)CCC1(CCC(=O)OC)CCCCCCC(CCC(=O)OC)(CCC(=O)OC)C(=O)C1=O`, the GI50 was > 100 µM (inactive) in assay [1]; > 100 µM (inactive) in [2]; > 100 µM (inactive) in assay [3]; < 0.01 µM (active) in assay [19]; 54.6 µM (inactive) in assay [18]; > 100 µM (inactive) in [6]. Besides, the GI50 in assay [7] is > 100 µM (inactive); in assay [8], > 100 µM (inactive); in assay [9], > 100 µM (inactive); in assay [10], > 100 µM (inactive); in assay [11] it was 60.3 µM (inactive); in [12], 54 µM (inactive). In addition, the GI50 in [13] is > 100 µM (inactive); in [20], > 100 µM (inactive); in assay [14], > 100 µM (inactive); in [15], 59 µM (inactive); in assay [16], 47.8 µM (inactive); in [17], 27.9 µM (inactive).

With `CCCCCCc1cc2cc(-c3csc(-c4ccc(OC)cc4)n3)c(=O)oc2cc1O`, the GI50 in assay [1] is 24.8 µM (inactive); in assay [2] it was 13.1 µM (inactive); in assay [3] it was 13.9 µM (inactive); in [4] it was 11 µM (inactive); in [19] it was 33.8 µM (inactive); in [5] it was 24.3 µM (inactive). The GI50 in assay [18] was 3.57 µM (inactive); in assay [6], 20.2 µM (inactive); in assay [7], 14.7 µM (inactive); in assay [9], 5.45 µM (inactive); in assay [11] it was 96.2 µM (inactive); in [12], 51.8 µM (inactive). Moreover, the GI50 in assay [13] was 15.8 µM (inactive); in [14], 15.8 µM (inactive); in [15], 9.06 µM (inactive); in [16] it was 18.9 µM (inactive); in assay [17], 15.3 µM (inactive).

`C/C(=C\CO)CC/C=C(\C)CNc1ccc([N+](=O)[O-])cc1`: the GI50 is 16.1 µM (inactive) in assay [1]; > 100 µM (inactive) in [2]; 32.5 µM (inactive) in assay [3]; 26.2 µM (inactive) in assay [4]; 1.93 µM (inactive) in [5]; 24.8 µM (inactive) in [6]. Moreover, the GI50 was > 100 µM (inactive) in assay [7]; 2.57 µM (inactive) in assay [8]; 28.8 µM (inactive) in assay [9]; 18 µM (inactive) in assay [10]; 27.4 µM (inactive) in assay [11]; 36.6 µM (inactive) in assay [12]. The GI50 is 16.6 µM (inactive) in [13], 20.4 µM (inactive) in assay [14], 12 µM (inactive) in assay [15] and 18 µM (inactive) in [16].

With `CC(=O)N1N=C(c2cc(C)ccc2O)CC1c1cccc(Cl)c1` (stereo not drawn), the GI50 is 5.7 µM (inactive) in [1]; 11.3 µM (inactive) in assay [2]; 10.9 µM (inactive) in assay [3]; 17.5 µM (inactive) in assay [4]; 6.24 µM (inactive) in assay [19]; 4.26 µM (inactive) in assay [5]. Further, the GI50 in assay [18] was 3.17 µM (inactive); in assay [6], 24.1 µM (inactive); in assay [7], 22.3 µM (inactive); in [8], 13.5 µM (inactive); in assay [9] it was 2.6 µM (inactive); in assay [10], 3.07 µM (inactive). Also, the GI50 is 6.97 µM (inactive) in assay [11]; 6.93 µM (inactive) in assay [12]; 12.9 µM (inactive) in assay [13]; 10.3 µM (inactive) in assay [14]; 11.7 µM (inactive) in assay [15]; 3.35 µM (inactive) in assay [16].

Consider `C/C=C/C[C@@H](C)C(=O)C1C(=O)N[C@@H](C(C)C)C(=O)N(C)CC(=O)N(C)[C@@H](CC(C)C)C(=O)N[C@@H](C(C)C)C(=O)N(C)[C@@H](CC(C)C)C(=O)N[C@@H](C)C(=O)N[C@@H](C)C(=O)N(C)[C@@H](CC(C)C)C(=O)N(C)[C@@H](CC(C)C)C(=O)N(C)[C@@H](C(C)C)C(=O)N1C` (stereo partly drawn), for which the GI50 in assay [1] is 3.67 µM (inactive); in assay [2], 3.03 µM (inactive); in assay [3], 7.28 µM (inactive); in [4], 6.17 µM (inactive); in assay [5], 2.35 µM (inactive); in assay [18], 7.26 µM (inactive). Besides, the GI50 in [6] is 8.51 µM (inactive); in [7], 6.47 µM (inactive); in assay [8] it was 7.83 µM (inactive); in [10] it was 4.19 µM (inactive); in [11] it was 3.8 µM (inactive); in assay [13] it was 6.21 µM (inactive). Moreover, the GI50 is 2.99 µM (inactive) in [15], 0.703 µM (active) in assay [16] and 2.46 µM (inactive) in assay [17].

For `CC(C)(CO)N1C(=O)c2ccccc2C1(O)c1ccc(Cl)cc1` (stereo not drawn), the GI50 was > 100 µM (inactive) in assay [1]; 39.9 µM (inactive) in assay [2]; > 100 µM (inactive) in assay [3]; > 100 µM (inactive) in assay [4]; > 100 µM (inactive) in [19]; > 100 µM (inactive) in [5]. Besides, the GI50 in assay [6], in assay [7], in [8], in [9], in assay [10] and in assay [11] was > 100 µM (inactive) throughout. The GI50 is > 100 µM (inactive) in assay [12]; > 100 µM (inactive) in assay [13]; 37.8 µM (inactive) in assay [14]; > 100 µM (inactive) in assay [15]; 44.3 µM (inactive) in assay [16]; > 100 µM (inactive) in assay [17].
